Laboratory results as given in patent publication US11076597B2, “High stress resistant plant growth regulator and preparation method and use thereof” (SHANGHAI INSTITUTES FOR BIOLOGICAL SCIENCES, CHINESE …, priority 2015, dated 2021).
“Also recorded” adds a separate entry of the source. Where two headings read alike, the source gives them in different places.

Assays:
[1] = molecular target: T1, PYL2 receptor-HAB1 complex (Arabidopsis thaliana, UniProt O80992); assay: HAB1 phosphatase activity assay (SnRK2.6 phosphorylated polypeptide as substrate); format: biochemical; conditions: FIG. 1a-1g; 100 nM HAB1, 500 nM PYL2
T1 construct: made in house; host or cells: E. coli BL21 (DE3)
T1 sequence (O80992 14-188): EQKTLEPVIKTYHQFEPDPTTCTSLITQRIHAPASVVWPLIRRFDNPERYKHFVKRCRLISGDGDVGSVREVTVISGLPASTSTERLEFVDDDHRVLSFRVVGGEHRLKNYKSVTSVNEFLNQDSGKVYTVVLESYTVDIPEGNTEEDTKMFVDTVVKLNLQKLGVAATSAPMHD
T1 sequence (Q9CAJ0 172-511 partner limits assumed): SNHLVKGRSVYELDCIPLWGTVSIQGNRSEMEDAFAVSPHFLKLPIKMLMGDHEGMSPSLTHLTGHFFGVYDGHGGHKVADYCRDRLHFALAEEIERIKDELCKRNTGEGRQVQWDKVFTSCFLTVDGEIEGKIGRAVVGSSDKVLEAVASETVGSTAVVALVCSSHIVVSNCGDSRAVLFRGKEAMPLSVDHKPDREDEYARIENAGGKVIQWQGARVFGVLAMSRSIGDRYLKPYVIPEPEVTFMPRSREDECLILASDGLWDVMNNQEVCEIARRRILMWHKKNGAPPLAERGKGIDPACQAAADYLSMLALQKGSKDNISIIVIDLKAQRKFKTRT
Procedure: 50 mM imidazole, pH 7.2, 5 mM MgCl2, 0.1% β-mercaptoethanol, 0.5 μg·ml^−1 BSA, 100 nM HAB1 protein with a Biotin tag sequence, 500 nM PYL2 receptor protein with 6×His-SUMO dual tag sequence and the corresponding concentration of (+)-ABA/0224/0304/0706/0708/0713/0715/1028c/0428/1022B/NC0F4 were contained in the reaction system. The reaction system was incubated at room temperature for 30 minutes, followed by a further reaction for 30 minutes after adding an 11-amino acid phosphorylated polypeptide as a substrate. The phosphorylated polypeptide is amino acid 170-180 of SnRK2.6 protein kinase, wherein phosphorylated serine at position 175 (with a sequence of HSQPKpSTVGTP, purchased from Kingsley Company) was a known HAB1 dephosphorylation target site. After 30 minutes, chromogenic reagent (purchased from BioVision) was added and the absorbance at 650 nm was read on a microplate reader (Molecular Devices).

[2] = molecular target: T2, PYL2 receptor-HAB1 protein phosphatase complex (Arabidopsis thaliana, UniProt O80992); assay: AlphaScreen assay, PYL2 receptor binding to HAB1; format: biochemical; conditions: fraction of the EC50 of ABA; FIG. 2c, 2e-2g
T2 construct: made in house; host or cells: E. coli BL21 (DE3)
T2 sequence (O80992 14-188): T1 sequence (O80992 14-188)
T2 sequence (Q9CAJ0 172-511 partner limits assumed): T1 sequence (Q9CAJ0 172-511 partner limits assumed)
Procedure: (§1) The AlphaScreen kit (available from Perkin Elmer) was used, and the method was as follows: a 10× buffer (50 mM MOPS, pH 7.4, 50 mM NaF, 50 mM CHAPS, 0.1 mg/ml bovine serum albumin) diluted at 1:10, each of 100 nM HAB1 with Biotin tag sequence and PYR1/PYL1/PYL2/PYL7/GmPYL6/OsPYL2 protein with dual tags of 6×His and SUMO sequences, corresponding concentrations of (+)-ABA/0224/0304/0706/0708/0713/0715/0428/NC0F4, and 5 μg/ml donor beads and acceptor beads (available from Perkin Elmer) were contained in 150 μl of experimental system. After incubating for 1.5 hours at room temperature in the dark, it was placed into an Envision Plate Reader (available from Perkin Elmer) under the programmed AlphaScreen procedure for readings.
(§2) AlphaScreen technology was used to test the ability of the compounds of the present invention to promote PYL receptor binding to PP2C protein phosphatase (HAB1).

[3] = molecular target: T2, PYL2 receptor-HAB1 protein phosphatase complex; assay: AlphaScreen assay: promotion of PYL2 receptor binding to PP2C protein phosphatase HAB1; conditions: 6×His-SUMO-tagged PYL2 (aa 14-188), Biotin-tagged HAB1 (aa 172-511), 100 nM each, pH 7.4, 1.5 h room temperature, read-out: EC50
Text: (§3) The construction method of recombinant plasmids for the Arabidopsis thaliana genes PYL1 (amino acid sequence 36-211), PYL2 (amino acid sequence 14-188) with dual tags of 6×His and SUMO sequence and the Arabidopsis thaliana gene HAB1 (amino acid sequence 172-511) with the Biotin tag sequence is described in detail in “A gate-latch-lock mechanism for hormone signaling by abscisic acid receptors” (Nature, Vol 462, 2009). The construction method of recombinant plasmids for PYR1 and PYL7 (whole gene coding sequence) and Soybean GmPYL6 and rice OsPYL2 with dual tags of 6×His and SUMO sequence is the same as that for Arabidopsis PYL2.
(§4) The above recombinant plasmid is transformed into competent cell of E. coli BL21 (DE3) (purchased from NEB company), and inoculated into 200 ml of LB liquid medium containing Amp resistance (purchased from OXOID company) and cultured overnight at 37° C. at 200 rpm; and inoculated into 2 L of LB liquid medium containing Amp resistance at a ratio of 1:50-1:100 for an extended culture, and cultured at 37° C., 200 rpm for 3-4 hours, and at a low temperature of 16° C. until OD600 is about 0.8-1.0. Recombinant plasmids for PYR1/PYL1/PYL2/PYL7/GmPYL6/OsPYL2 with dual tags of 6×His and SUMO sequence were induced overnight with 100 μM of IPTG while HAB1 recombinant plasmid with the Biotin tag sequence was induced simultaneously with 100 μM of IPTG and 40 μM of biotin.
(§5) After 16 hours of induction, the bacterial solution was centrifuged at 4000 rpm for 20 minutes at 4° C. in a low-speed high-capacity centrifuge, and the bacteria cells were collected. Bacteria cells were resuspended in 50 ml of extraction buffer (containing 20 mM Tris, pH 8.0, 200 mM NaCl and 10% (v/v) glycerol) for per 2 L of bacterial solution and then subjected to pressure-breaking at […] and 4° C. for 3-5 times. The broken cells were subjected to ultracentrifugation, centrifuged at 16000 rpm for 30 minutes, and this process was repeated twice. The supernatant was collected and subjected to an affinity chromatography column.
(§6) For PYR/PYL proteins with dual tags of 6×His and SUMO sequences, 50 ml of affinity chromatography Ni column (50 ml Ni-NTA column, available from GE) was used. Firstly, the column was equilibrated with 600 ml of 10% buffer B (containing 20 mM Tris, PH 8.0, 200 mM NaCl, 500 mM imidazole and 10% glycerol), and then eluted with 200 ml of 50% buffer B and finally eluted with 100 ml of 100% buffer B. Proteins for crystal analysis were mixed with ulp1 enzyme at a molar ratio of 1000:1 for enzymatic dialysis overnight. The digested proteins were subjected to affinity chromatography on a Ni column once more. The collected solution was subjected to a HiLoad 26/60 Superdex200 gel filtration column (commercially available from GE) and eluted with an elution solution (containing 25 mM Tris, pH 8.0, 200 mM ammonium acetate, 1 mM dithiotreitol and 1 mM EDTA) to further separate and purify the protein.
For a HAB1 protein with a Biotin tag sequence, it was subjected to a 50 ml MBP affinity column (available from GE). The column was firstly equilibrated with 600 ml of 10% buffer C (containing 20 mM Tris, pH 8.0, 200 mM NaCl, 10 mM Maltose and 10% Glycerol), and eluted with 200 ml of 50% buffer C and finally eluted with 100 ml of 100% buffer C. The collection solution was subjected to a HiLoad 26/60 Superdex200 gel filtration column and eluted with an elution solution (containing 20 mM Tris, pH 8.0, 200 mM NaCl and 10% Glycerol) to further separate and purify the protein. […]

[4] = tested on: ABA-induced environmental stress-related gene (COR15a, COR47, RAB18 and RD29b); assay: Gene expression analysis (fluorescence quantitative PCR); format: in vivo, Arabidopsis thaliana (Col-0); conditions: 10 μM, 6 hours, 10-day-aged seedlings; FIG. 10
Procedure: The whole plant or leaves were taken, and RNA extraction was carried out by using conventional methods. After reverse transcription, the fluorescence quantitative PCR was carried out. Three biological samples were taken for each treatment which was performed twice. The ACT7 gene was used as a reference gene.

[5] = molecular target: T3, PYR1 receptor-HAB1 protein phosphatase complex (Arabidopsis thaliana, UniProt O49686); assay: AlphaScreen assay, PYR1 receptor binding to HAB1; format: biochemical; conditions: fraction of the EC50 of ABA; FIG. 2a, 2h
T3 construct: made in house; host or cells: E. coli BL21 (DE3)
T3 sequence (O49686 1-191): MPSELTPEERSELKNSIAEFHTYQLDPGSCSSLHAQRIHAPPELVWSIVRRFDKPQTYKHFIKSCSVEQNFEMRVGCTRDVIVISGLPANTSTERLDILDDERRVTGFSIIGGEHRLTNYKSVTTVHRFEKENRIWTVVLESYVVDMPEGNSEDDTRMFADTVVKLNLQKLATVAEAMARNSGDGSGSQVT
T3 sequence (Q9CAJ0 172-511 partner limits assumed): T1 sequence (Q9CAJ0 172-511 partner limits assumed)
Procedure: as §1, §2

[6] = molecular target: T3, PYR1 receptor-HAB1 protein phosphatase complex; assay: AlphaScreen assay: promotion of PYR1 receptor binding to PP2C protein phosphatase HAB1; conditions: FIG. 2h; 6×His-SUMO-tagged PYR1 (whole coding sequence), Biotin-tagged HAB1 (aa 172-511), 100 nM each; pH 7.4; 1.5 h room temperature; read-out: EC50
Text: as §3, §4, §5, §6
For a HAB1 protein with a Biotin tag sequence, it was subjected to a 50 ml MBP affinity column (available from GE). The column was firstly equilibrated with 600 ml of 10% buffer C (containing 20 mM Tris, pH 8.0, 200 mM NaCl, 10 mM Maltose and 10% Glycerol), and eluted with 200 ml of 50% buffer C and finally eluted with 100 ml of 100% buffer C. […]

| EC50 value with PYL2 receptor-HAB1 complex as fraction of that of ABA [2] | EC50 ([3]; FIG. 2g) | EC50 ([3]; FIG. 2e) | EC50 value with PYR1 receptor-HAB1 complex as fraction of that of ABA [5] | EC50 [6] | SMILES | inhibition of HAB1 protein phosphatase activity by promoting binding between PYL2 receptor and HAB1 [1] | expression level of COR15a, COR47, RAB18 and RD29b [4] |
| --- | --- | --- | --- | --- | --- | --- | --- |
| ⅕-⅛ |  | 136 nM |  |  | Cc1c(F)c(F)c(CS(=O)(=O)Nc2ccc3c(c2)C(C)OC(=O)N3C(C)C)c(F)c1F (stereo not drawn) [Compound 0708] | inhibiting the activity of protein phosphatase HAB1; also recorded: inhibiting the dephosphorylation effect of HAB1 on SnRK2.6 phosphorylated polypeptide |  |
| ⅕-⅛ |  | 181 nM |  |  | Cc1c(F)c(F)c(CS(=O)(=O)Nc2ccc3c(c2)C(C)OC(=O)N3CC(C)C)c(F)c1F (stereo not drawn) [Compound 0713] | inhibiting the activity of protein phosphatase HAB1; also recorded: inhibiting the dephosphorylation effect of HAB1 on SnRK2.6 phosphorylated polypeptide |  |

The next lines start with the compound.

| SMILES | EC50 value with PYL2 receptor-HAB1 complex as fraction of that of ABA [2] | EC50 ([3]; FIG. 2g) | EC50 ([3]; FIG. 2e) | EC50 value with PYR1 receptor-HAB1 complex as fraction of that of ABA [5] | EC50 [6] | inhibition of HAB1 protein phosphatase activity by promoting binding between PYL2 receptor and HAB1 [1] | expression level of COR15a, COR47, RAB18 and RD29b [4] |
| --- | --- | --- | --- | --- | --- | --- | --- |
| CCCn1c(=O)ccc2cc(NS(=O)(=O)Cc3ccc(C)cc3)ccc21 [Compound 1022B] | one order of magnitude lower than that of ABA | 180 nM |  |  |  | inhibiting the activity of protein phosphatase HAB1; also recorded: inhibiting the dephosphorylation effect of HAB1 on SnRK2.6 phosphorylated polypeptide | all higher than those of ABA; also recorded: significantly increased |
| CCCN1C(=O)NCc2cc(NS(=O)(=O)Cc3c(F)c(F)c(C)c(F)c3F)ccc21 [Compound NC0F4] | better PYL2 receptor affinity over ABA |  |  | about 1/11 | 373 nM | inhibiting the activity of protein phosphatase HAB1; also recorded: inhibiting the dephosphorylation effect of HAB1 on SnRK2.6 phosphorylated polypeptide |  |
| CCCN1C(=O)NC(C)c2cc(NS(=O)(=O)Cc3c(F)c(F)c(C)c(F)c3F)ccc21 (stereo not drawn) [Compound 1028c] |  |  |  |  |  | inhibiting the activity of protein phosphatase HAB1; also recorded: inhibiting the dephosphorylation effect of HAB1 on SnRK2.6 phosphorylated polypeptide |  |
